Test results as given in patent publication US7655598B2, “Herbicide composition” (Sumitomo Chemical Company, Limited, priority 2001, dated 2010).

Test system: sickle pod
Assay: Test Example 1: foliar spray herbicide effect on sickle pod in greenhouse pots
Assay type: in vivo, sickle pod (Cassia obtusifolia)
Details: evaluated 5 days after treatment, scale 0-10
Protocol: Evaluation of phytotoxicity against a crop was shown by “no” when almost no phytotoxicity was observed, “low” when a low level phytotoxicity was observed, “medium” when a medium level phytotoxicity was observed and “high” when a high level phytotoxicity was observed.
A plastic pot of 11 cm in diameter and 8 cm in depth was filled with field soil. A seed of sickle pod was sown and grown in a greenhouse for 28 days.
An emulsion of Compound A-1 was prepared by sufficiently mixing 5 parts of Compound A-1, 6 parts of Sorpol 3005X (surfactant, produced by Toho Chemical) and 89 parts of xylene.
Each of • single use of an emulsion of Compound A-1, • single use of an emulsion of Oxyfluorfen (commercial name: Goal, produced by Rohm & Hass Co., containing 23% of Oxyfluorfen), and • a mixed composition of an emulsion of Compound A-1 and an emulsion of Oxyfluorfen, • were diluted with water containing 1% Agri-dex (produced by Helena). Respective dilutions were uniformly sprayed from upper side onto foliages of sickle pod grown as described above with a small sprayer such that the amounts of the active ingredients were the amounts shown in Table 4.
After the treatment, they were raised in a greenhouse for 5 days and the effect against weeds was evaluated.

`CCOc1cc(Oc2ccc(C(F)(F)F)cc2Cl)ccc1[N+](=O)[O-]` [Oxyfluorfen, 2-chloro-1-(3-ethoxy-4-nitrophenoxy)-4-(trifluoromethyl)benzen] was tested. Which “Herbicide Effect sickle pod” value (500 g/ha active ingredient) did it give?
Its value is 3.

And the “Herbicide Effect sickle pod” value (2000 g/ha active ingredient)?
Its value is 3.
